Patent US4705797A, “N-(3,3-diphenylpropyl) aminoethyl esters of 1,4-dihydro-2,6-dimethyl-pyridine-3,5-dicarboxylic acid, compositions and use” (Recordati S.A., Chemical and Pharmaceutical Company, priority 1984, dated 1987)
Where two headings read alike, the source gives them in different places.

Key:
[1] = tested on: hypertensive rats (SHR); assay: Antihypertensive activity in male hypertensive rats (SHR), systolic blood pressure by indirect tail-cuff method; type: in vivo, rat (SHR, Wister-Kyoto strain); settings: 0.5% methylcellulose, systolic blood pressure measured 1, 3, 5 and 7 hours after administration; for ED25: Rattus norvegicus, po, read-out: ED25 SHR os (antihypertensive activity); for ED25 SHR os (antihypertensive activity): oral
Protocol: The antihypertensive activity of the diesters according to the invention was evaluated in male hypertensive rats (SHR, Wister-Kyoto strain, 15-25 weeks old). The determination of blood pressure was performed by an indirect method [M. Gerald et al., Arzneim. Forsch., 18, 1825 (1968)]. The animals were prewarmed in a heating chamber at a temperature of from 35° C. to 37° C. for a period of 15 minutes before pressure determination. The compounds tested by oral route were dissolved or suspended in a 0.5% methylcellulose solution. Controls were given only the vehicle. Systolic blood pressure and heart rate were measured 1, 3, 5 and 7 hours after drug administration by means of a tail-cuff and a pulse transducer.

[2] = tested on: methacholine induced coronary spasm; assay: Coronary dilating activity: antagonism of methacholine induced coronary spasm in anesthetized normotensive rats; type: in vivo; settings: Rattus norvegicus, iv, i.v. infusion in water:dimethylformamide 9:1, normalization of ECG during methacholine infusion
Protocol: Coronary dilating activity was evaluated in anesthetized normotensive rats (weighing about 500 g), as the ability to antagonize methacholine induced coronary spasm. Rats were instrumented for methacholine infusion into the coronary ostium, while spastic activity was detected as ST segment elevation in D2 ECG recording [K. Sakai et al., J. Pharm. Meth., 5, 325 (1981)].
The compounds tested by i.v. infusion were dissolved in water: dimethylformamide (9:1 by volume). Activity was detected as normalization of ECG tracing after compounds administration during methacholine infusion.

[3] = LD50 determined in the mouse, i.p. and per os (Weil method); type: in vivo; settings: in vivo
Protocol: (§1) The LD50 of the compounds according to the invention was determined in the mouse, both i.p. and per os, according to the method described by C. S. Weil [Biometrics, 8, 249 (1952)].

[4] = tested on: mouse; assay: as above; type: in vivo; settings: for LD50 os: per os
Protocol: as §1

Structure (SMILES) | ED25 [1] [mg/kg] | ED50 [2] [mg/kg] | LD50 ([3]; ip, read-out: LD50 i.p.) [mg/kg] | LD50 ([3]; po, per os, read-out: LD50 os) [mg/kg] | ED25 SHR os (antihypertensive activity) [1] [mg/kg] | LD50 i.p. [4] [mg/kg] | LD50 os [4] [mg/kg]
COC(=O)C1=C(C)NC(C)=C(C(=O)OCCCN(C)CCC(c2ccccc2)c2ccccc2)C1c1cccc([N+](=O)[O-])c1 (stereo not drawn) [compound 2263, methyl N-(3,3-diphenylpropyl)-N-methyl-3-aminopropyl 1,4-dihydro-2,6-dimethyl-4-(3-nitrophenyl)-pyridine-3,5-dicarboxylate] | 3.4 | 0.197 | 171 | 254 | – | – | –
COC(=O)C1=C(C)NC(C)=C(C(=O)OCCNCCC(c2ccccc2)c2ccccc2)C1c1cccc([N+](=O)[O-])c1 (stereo not drawn) [compound 2279, methyl N-(3,3-diphenylpropyl)-2-amino-ethyl 1,4-dihydro-2,6-dimethyl-4-(3-nitrophenyl)-pyridine-3,5-dicarboxylate] | 7.3 | 0.297 | 121 | 279 | – | – | –
COC(=O)C1=C(C)NC(C)=C(C(=O)OC(C)CN(C)CCC(c2ccccc2)c2ccccc2)C1c1cccc([N+](=O)[O-])c1 (stereo not drawn) [compound 2288, methyl 1, N-dimethyl-N-(3,3-diphenylpropyl)-2-aminoethyl 1,4-dihydro-2,6-dimethyl-4-(3-nitrophenyl)-pyridine-3,5-dicarboxylate] | 1.5 | 0.046 | 72 | 197 | – | – | –
CC1=C(C(=O)OCCN(C)CCC(c2ccccc2)c2ccccc2)C(c2cccc([N+](=O)[O-])c2)C(C(=O)OCC(C)C)=C(C)N1 (stereo not drawn) [compound 2329, isobutyl N-(3,3-diphenylpropyl)-N-methyl-2-aminoethyl 1,4-dihydro-2,6-dimethyl-4-(3-nitrophenyl)-pyridine-3,5-dicarboxylate] | – | – | – | – | 3.4 | 63 | 401
CC1=C(C(=O)OCCN(C)CCC(c2ccccc2)c2ccccc2)C(c2cccc([N+](=O)[O-])c2)C(C(=O)OC(C)C)=C(C)N1 (stereo not drawn) [compound 2350, isopropyl N-(3,3-diphenylpropyl)-N-methyl-2-aminoethyl 1,4-dihydro-2,6-dimethyl-4-(3-nitrophenyl)-pyridine-3,5-dicarboxylate] | 3 | – | 50 | 116 | – | – | –
CC1=C(C(=O)OCCN(C)CCC(c2ccccc2)c2ccccc2)C(c2cccc([N+](=O)[O-])c2)C(C(=O)OCC(C)C)=C(C)N1 (stereo not drawn) [compound 2352, isobutyl N-(3,3-diphenylpropyl)-N-methyl-2-aminoethyl 1,4-dihydro-2,6-dimethyl-4-(3-nitrophenyl)-pyridine-3,5-dicarboxylate] | – | – | – | – | 6.9 | 222 | 2195
COC(=O)C1=C(C)NC(C)=C(C(=O)OCCCCN(C)CCC(c2ccccc2)c2ccccc2)C1c1cccc([N+](=O)[O-])c1 (stereo not drawn) [compound 2361, methyl N-(3,3-diphenylpropyl)-N-methyl-4-aminobutyl 1,4-dihydro-2,6-dimethyl-4-(3-nitrophenyl)-pyridine-3,5-dicarboxylate] | 7.2 | – | 99 | 493 | – | – | –
COC(=O)C1=C(C)NC(C)=C(C(=O)OC(C)(C)CN(C)CCC(c2ccccc2)c2ccccc2)C1c1cccc([N+](=O)[O-])c1 (stereo not drawn) [compound 2375, methyl 1,1,N-trimethyl-N-(3,3-diphenylpropyl)-2-aminoethyl 1,4-dihydro-2,6-dimethyl-4-(3-nitrophenyl)-pyridine-3,5-dicarboxylate] | 2.6 | 0.082 | 83 | 657 | – | – | –
CC1=C(C(=O)OCC(C)C)C(c2cccc(Cl)c2Cl)C(C(=O)OC(C)CN(C)CCC(c2ccccc2)c2ccccc2)=C(C)N1 (stereo not drawn) [compound 2383, isobutyl 1,N-dimethyl-N-(3,3-diphenylpropyl)-2-aminoethyl 1,4-dihydro-2,6-dimethyl-4-(2,3-dichlorophenyl)-pyridine-3,5-dicarboxylate] | 3.4 | – | – | 500 | – | – | –
